Experimental data from patent US20240287138A1, “CYCLIC PEPTIDES FOR INHIBITING TNF RECEPTOR 1 ACTIVITY” (Merck Sharp & Dohme LLC, priority 2023, published 2024).
Numbered stars: 1 amine (or outer) side, 2 acyl side, 3 side chain; on linkers, the order of the positions; unused ones are H or OH. Bridge positions count the residues as written; N and C are the ends. Square brackets hold non-standard residues; d marks the D form. Peptide text beside a SMILES is read from it. Trp(βS-Me,7-OMe) = COc1cccc2c([C@H](C)[C@H](N)C(=O)O)c[nH]c12; Trp(7-CN) = N#Cc1cccc2c(C[C@H](N)C(=O)O)c[nH]c12; Trp(7-Cl) = N[C@@H](Cc1c[nH]c2c(Cl)cccc12)C(=O)O; Phe(4-CONH2) = NC(=O)c1ccc(C[C@H](N)C(=O)O)cc1; Phe(4-COOH) = N[C@@H](Cc1ccc(C(=O)O)cc1)C(=O)O; 4Pal(3S-Me) = C[C@@H](c1ccncc1)[C@H](N)C(=O)O; Pip(5R-OH) = O=C(O)[C@@H]1CC[C@@H](O)CN1; X1 = O=C([C@@H]1CC[C@H](N[*:1])C1)[*:2]; X40 = CCN([C@H](C)C(=O)[*:2])[*:1]; Pip(4-aza) = O=C(O)[C@@H]1CNCCN1; 4Pal = N[C@@H](Cc1ccncc1)C(=O)O; NMeE = CN[C@@H](CCC(=O)O)C(=O)O; dHyp = O=C(O)[C@H]1C[C@H](O)CN1; Aad = N[C@@H](CCCC(=O)O)C(=O)O; aThr = C[C@H](O)[C@H](N)C(=O)O; Ahp(2) = CCCCC[C@H](N)C(=O)O; αMeS = C[C@](N)(CO)C(=O)O; Nle = CCCC[C@H](N)C(=O)O; Sar = CNCC(=O)O

Key:
[1] = molecular target: T1, human soluble TNFR1 (sTNFR1) (Homo sapiens, UniProt P19438); test: Human sTNFR1-peptide displacement assay (LanthaScreen Eu TR-FRET binding assay)
T1 construct: made in house; host or cells: Sf21 (baculovirus)
T1 sequence (P19438 with tags, fused parts or gaps): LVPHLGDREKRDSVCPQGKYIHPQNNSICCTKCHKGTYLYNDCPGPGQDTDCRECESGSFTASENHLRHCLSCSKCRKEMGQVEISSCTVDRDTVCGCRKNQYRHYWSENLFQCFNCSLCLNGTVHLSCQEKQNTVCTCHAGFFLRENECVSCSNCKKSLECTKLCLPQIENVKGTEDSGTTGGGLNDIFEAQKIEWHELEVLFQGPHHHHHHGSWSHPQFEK
Procedure: A. Procedure for Human sTNFR1-Peptide Displacement Assay
The affinity was determined using LanthaScreen Eu-based time-resolved fluorescence resonance energy transfer (TR-FRET)-based binding assay.
A TR-FRET assay measuring the displacement of biotinylated peptide SEQ ID NO. 1 from human soluble TNFR1 (sTNFR1) in a pre-formed complex by a macrocyclic peptide yields the affinity (Kd^app) of the cyclic peptide for sTNFR1. The reagents for the assay include: the C′-terminally 6His-tagged sTNFR1 (residues 1-211) protein purified from a Sf21 baculovirus expression system, the biotin-tagged B0372 peptide described in section “Preparation of Final Compounds”, part E, the LanthaScreen™ anti-His Tag Europium donor (Life Technologies Corporation (San Diego, CA), cat. #PV5597), and a streptavidin-conjugate Alexa Fluor™ 647 acceptor (Invitrogen (Waltham, MA), cat. #S32357). Time-resolved TR-FRET is achieved when sTNFR1 is bound to biotinylated peptide SEQ ID NO. 1 through coupling of the donor and acceptor FRET pair.
100 nM biotinylated peptide SEQ ID NO. […] 100 nM biotinylated peptide SEQ ID NO. 1 was chosen as it reflects the ˜Kd for this complex. After 30 min at ambient temperature, each test peptide (2 mM stock in DMSO) is titrated in a 20 point, ˜3-fold discrete dose-response using an acoustic-dispense liquid handler. Specifically, 80 nL of peptide/DMSO is transferred into a ProxiPlate-384 Plus 384-well assay plate (PerkinElmer, cat. #6008289). To this plate, 8 μL of the previously formed sTNFR 1-biotinylated peptide SEQ ID NO. 1 complex is added and allowed to reach binding equilibrium with the test peptide at ambient temperature for 90 min.
The TR-FRET signal is measured with the following EnVision® settings: excitation laser at 337 nm; emission1=615 nm, emission2=665 nm, LANCE/DELFIA dichroic mirror, delay time=[…]. The signal of each well is determined as the ratio of the emission at 665 nm to that at 615 nm. Percent displacement is determined by normalization to control wells containing DMSO (0%) or a saturating concentration of a displaceable peptide (100%). The %-effect as a function of peptide concentration is fit to a five-parameter logistic fit based on the Morrison equation to account for tight binding kinetics.

[2] = molecular target: T2, TNFα-induced NF-κB signal transduction pathway (TNFR1 signaling) in THP-1 cells (Homo sapiens, UniProt P19438); test: THP-1 Lucia NF-κB reporter cell assay, inhibition of TNFα-induced NF-κB signaling; type: cell-based; conditions: THP-1 NF-κB Lucia reporter cells, 10 ng/mL TNFα, 16-18 h, secreted luciferase; read-out: THP-1 IC50
T2 sequence (P19438 30-455): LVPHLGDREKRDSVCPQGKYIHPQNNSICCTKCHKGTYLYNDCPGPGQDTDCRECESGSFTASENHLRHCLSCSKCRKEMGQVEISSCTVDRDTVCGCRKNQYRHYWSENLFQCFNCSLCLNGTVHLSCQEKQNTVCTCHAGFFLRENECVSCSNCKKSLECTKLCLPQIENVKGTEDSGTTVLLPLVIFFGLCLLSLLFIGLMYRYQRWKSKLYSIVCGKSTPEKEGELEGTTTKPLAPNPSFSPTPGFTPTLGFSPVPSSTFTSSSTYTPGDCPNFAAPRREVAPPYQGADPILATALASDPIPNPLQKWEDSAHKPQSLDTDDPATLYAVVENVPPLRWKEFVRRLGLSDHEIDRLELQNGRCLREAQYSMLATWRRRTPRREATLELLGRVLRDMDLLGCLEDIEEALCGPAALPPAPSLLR
Outline: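 Read-out: secreted Lucia luciferase luminescence (QUANTI-Luc) from supernatant after 16-18 h, 37 °C, 10 ng/mL rhTNFα. Peptide pretreatment 1 h at 37 °C; 20,000 cells/well, selection antibiotics omitted. IC50 via 4-parameter logistic model against min/max controls.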

SMILES | IC50 [1] [pM] | Kd [1] [pM] | IC50 [2] [pM]
CCCC[C@@H]1NC(=O)CSC[C@@H](C(N)=O)NC(=O)[C@H]([C@@H](C)c2c[nH]c3c(OC)cccc23)NC(=O)CN(C)C(=O)[C@H](Cc2ccc(OC)cc2)NC(=O)[C@H](Cc2ccc(C(=O)O)cc2)NC(=O)[C@](C)(CO)NC(=O)[C@H](Cc2c[nH]c3c(Cl)cccc23)NC(=O)[C@H](Cc2ccc(C(N)=O)cc2)NC(=O)[C@H](CC(N)=O)NC(=O)[C@H](CCC(=O)O)N(C)C(=O)[C@H](Cc2c[nH]c3ccccc23)NC(=O)[C@@H]2CNCCN2C(=O)[C@H](Cc2ccncc2)NC1=O [SEQ ID NO. 162] ({CH2CO}-[Nle][4Pal][Pip(4-aza)]W[NMeE]N[Phe(4-CONH2)][Trp(7-Cl)][αMeS][Phe(4-COOH)]Y(Me)[Sar][Trp(βS-Me,7-OMe)]C-NH2; thioether N-14) | 690 | 560 | 100
CCCC[C@@H]1NC(=O)CSC[C@@H](C(N)=O)NC(=O)[C@H]([C@@H](C)c2c[nH]c3c(OC)cccc23)NC(=O)CN(C)C(=O)[C@H](Cc2ccc(O)cc2)NC(=O)[C@H](Cc2ccc(C(N)=O)cc2)NC(=O)[C@](C)(CO)NC(=O)[C@H](Cc2c[nH]c3c(Cl)cccc23)NC(=O)[C@H](Cc2ccncc2)NC(=O)[C@H](CC(N)=O)NC(=O)[C@@H](C)N(CC)C(=O)[C@H](Cc2c[nH]c3ccccc23)NC(=O)[C@@H]2CC[C@@H](O)CN2C(=O)[C@H](Cc2ccncc2)NC1=O [SEQ ID NO. 186] ({CH2CO}-[Nle][4Pal][Pip(5R-OH)]W[X40]N[4Pal][Trp(7-Cl)][αMeS][Phe(4-CONH2)]Y[Sar][Trp(βS-Me,7-OMe)]C-NH2; thioether N-14) | 500 | 420 | 1900
CCCCC[C@@H]1NC(=O)[C@@H]2CC[C@@H](C2)NC(=O)[C@H]([C@@H](C)c2c[nH]c3c(OC)cccc23)NC(=O)CN(C)C(=O)[C@H](Cc2ccc(C(N)=O)cc2)NC(=O)[C@H](Cc2ccc(C(N)=O)cc2)NC(=O)[C@](C)(CO)NC(=O)[C@H](Cc2c[nH]c3c(C#N)cccc23)NC(=O)[C@H](Cc2ccc(C(=O)O)cc2)NC(=O)[C@H](CC(N)=O)NC(=O)[C@H]2C[C@H](O)CN2C(=O)[C@H](Cc2c[nH]c3ccccc23)NC(=O)[C@H](CCCC(=O)O)NC(=O)[C@H]([C@@H](C)c2ccncc2)NC1=O [SEQ ID NO. 282] (cyclo([Aad]W[dHyp]N[Phe(4-COOH)][Trp(7-CN)][αMeS][Phe(4-CONH2)][Phe(4-CONH2)][Sar][Trp(βS-Me,7-OMe)][X1][Ahp(2)][4Pal(3S-Me)])) |  | 130 | 900
CCCCC[C@@H]1NC(=O)[C@@H]2CC[C@@H](C2)NC(=O)[C@H]([C@@H](C)c2c[nH]c3c(OC)cccc23)NC(=O)CN(C)C(=O)[C@H](Cc2ccc(C(N)=O)cc2)NC(=O)[C@H](Cc2ccc(C(N)=O)cc2)NC(=O)[C@](C)(CO)NC(=O)[C@H](Cc2c[nH]c3c(C#N)cccc23)NC(=O)[C@H](Cc2ccc(C(=O)O)cc2)NC(=O)[C@H](CC(N)=O)NC(=O)[C@H]2C[C@H](O)CN2C(=O)[C@H](Cc2c[nH]c3ccccc23)NC(=O)[C@H]([C@H](C)O)NC(=O)[C@H]([C@@H](C)c2ccncc2)NC1=O [SEQ ID NO. 91] (cyclo([Ahp(2)][4Pal(3S-Me)][aThr]W[dHyp]N[Phe(4-COOH)][Trp(7-CN)][αMeS][Phe(4-CONH2)][Phe(4-CONH2)][Sar][Trp(βS-Me,7-OMe)][X1])) |  | 240 | 900
CCCCC[C@@H]1NC(=O)[C@@H]2CC[C@@H](C2)NC(=O)[C@H]([C@@H](C)c2c[nH]c3c(OC)cccc23)NC(=O)CN(C)C(=O)[C@H](Cc2ccc(C(N)=O)cc2)NC(=O)[C@H](Cc2ccc(C(N)=O)cc2)NC(=O)[C@](C)(CO)NC(=O)[C@H](Cc2c[nH]c3c(C#N)cccc23)NC(=O)[C@H](Cc2ccc(C(=O)O)cc2)NC(=O)[C@H](CC(N)=O)NC(=O)[C@H]2C[C@H](O)CN2C(=O)[C@H](Cc2c[nH]c3ccccc23)NC(=O)[C@H](CCC(=O)O)NC(=O)[C@H]([C@@H](C)c2ccncc2)NC1=O [SEQ ID NO. 280] (cyclo([Ahp(2)][4Pal(3S-Me)]EW[dHyp]N[Phe(4-COOH)][Trp(7-CN)][αMeS][Phe(4-CONH2)][Phe(4-CONH2)][Sar][Trp(βS-Me,7-OMe)][X1])) |  | 250 | 
